Consider two molecules from patent US20080145893A1, “Method for producing a recombinant protein at high specific productivity, high batch yield and high volumetric yield by means of transient transfection” (EXCELLEGENE SA, priority 2006, published 2008).

The structures appear in SMILES notation.

For assay [1], the system named is HEK293E cells. The experiment in a line: Influence of 2-aminopurine on IgG batch yield (ELISA) of transiently transfected cells. The format is cell-based. The note with it: with 3 mmol/l sodium butyrate, day 18. In general terms: In an ELISA, binding on a coated surface is turned into a signal by an enzyme label.
Assay [2] has as its system HEK293E cells. The experiment in a line: Influence of sodium butyrate on IgG batch yield (ELISA) of transiently transfected cells. The settings on record: day 14.
The next assay relates to CHO DG44 cells. The experiment in a line: Influence of temperature and sodium butyrate on IgG batch yield (ELISA) of transiently transfected cells. The settings on record: 2 mmol/l NaBut, peak value during 18 day cultivation. The format is cell-based. The procedure: After that time, 18 ml of ProCHO5 medium were added. The cells were then equally distributed into 4 new 50-ml filter tubes (i.e., 5 ml of cell suspension in each tube) and treated as follows:
Tubes 8.1 and 8.3: Addition of sodium butyrate to a final concentration of 2 mmol/l
Tubes 8.2 and 8.4: No addition of sodium butyrate.

As to `Nc1ncc2[nH]cnc2n1` [2-aminopurine], the figures for the “Batch yield” value in the assay with HEK293E cells [1] (5 mmol/l 2-aminopurine) and in the assay with HEK293E cells [1] (10 mmol/l 2-aminopurine) were 628 mg/L and 708 mg/L, respectively.
Regarding `CCCC(=O)[O-].[Na+]` [NaBut, sodium butyrate], the “Batch yield” value in the assay with HEK293E cells [2] (1 mmol/l NaBut) was found to be 419 mg/L; with HEK293E cells [2] (2 mmol/l NaBut) it was 632 mg/L; in the assay on HEK293E cells [2] (3 mmol/l NaBut), 673 mg/L; in the assay with HEK293E cells [2] (6 mmol/NaBut), 447 mg/L; in the assay on HEK293E cells [2] (12 mmol/l NaBut) it was 288 mg/L. For the same molecule, the entries for the “Maximum batch yield” value with CHO DG44 cells (31° C.) and with CHO DG44 cells (37° C.) were 231 mg/L and 218 mg/L, respectively.
